Experimental findings from patent US5618812A, “Benzodiazepine derivatives” (Merck Sharp & Dohme, Ltd., priority 1992, dated 1997) are described below.

As a reminder, the IC50 is the concentration that gives 50% inhibition.

Counter-ions that a name gives are not always drawn. Like-named read-outs stand apart in the source and are kept apart here. Bounds are passed on as bounds.

For experiment [1], the target named is T1, CCK-A (Rattus norvegicus, UniProt P30551).
T1 sequence (P30551 1-444): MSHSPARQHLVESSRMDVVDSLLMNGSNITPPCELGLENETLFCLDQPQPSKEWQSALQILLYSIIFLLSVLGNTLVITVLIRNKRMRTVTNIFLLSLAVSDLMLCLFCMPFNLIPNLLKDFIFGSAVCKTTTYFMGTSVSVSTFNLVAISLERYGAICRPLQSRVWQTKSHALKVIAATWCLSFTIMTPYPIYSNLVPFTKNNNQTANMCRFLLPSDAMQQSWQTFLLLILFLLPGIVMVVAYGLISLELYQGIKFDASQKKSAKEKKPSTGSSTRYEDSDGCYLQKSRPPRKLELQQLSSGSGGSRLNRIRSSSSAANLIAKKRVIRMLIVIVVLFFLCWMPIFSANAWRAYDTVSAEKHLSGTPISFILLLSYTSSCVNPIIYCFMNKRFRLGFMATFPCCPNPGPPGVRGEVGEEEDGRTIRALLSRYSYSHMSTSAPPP
The experiment can be described thus: biochemical. The experiment is classed as binding. As to the method: The CCK-A and CCK-B antagonising activity of the compounds described herein was evaluated using the assays described in published European patent application no. 0514133. The method essentially involves determining the concentration of the test compound required to displace 50% of the specific ^125 I-CCK from rat pancreas (CCK-A) or guinea pig brain (CCK-B).

The target of experiment [2] is T2, CCK-B (Cavia porcellus, UniProt H0VZC5).
T2 construct: guinea pig brain (CCK-B); from tissue; host or cells: guinea pig brain
T2 sequence (H0VZC5 1-426): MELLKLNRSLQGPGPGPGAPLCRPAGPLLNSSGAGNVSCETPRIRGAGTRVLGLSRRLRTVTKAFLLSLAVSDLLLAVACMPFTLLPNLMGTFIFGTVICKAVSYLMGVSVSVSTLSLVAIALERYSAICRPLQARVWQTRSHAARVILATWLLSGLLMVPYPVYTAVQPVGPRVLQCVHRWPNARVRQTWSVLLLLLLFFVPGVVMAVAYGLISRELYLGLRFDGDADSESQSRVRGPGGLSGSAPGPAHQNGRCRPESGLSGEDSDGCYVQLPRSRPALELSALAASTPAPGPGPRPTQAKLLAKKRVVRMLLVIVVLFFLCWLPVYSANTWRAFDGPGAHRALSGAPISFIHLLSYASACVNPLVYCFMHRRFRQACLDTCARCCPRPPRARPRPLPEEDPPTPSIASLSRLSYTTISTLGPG
The experiment can be described thus: displacement of specific 125I-CCK from guinea pig brain (CCK-B receptor binding). As to the method: The CCK-A and CCK-B antagonising activity of the compounds described herein was evaluated using the assays described in published European patent application no. 0514133. The method essentially involves determining the concentration of the test compound required to displace 50% of the specific ^125 I-CCK from rat pancreas (CCK-A) or guinea pig brain (CCK-B). The data in Table 1 were obtained for compounds of the Examples.

[3] abbreviates: rat pancreas (CCK-A), 125I-CCK, read-out: CCK RECEPTOR BINDING RESULTS IC50 125I-CCK Pancreas.
Where [4] appears, read: read-out: CCK RECEPTOR BINDING RESULTS IC50 125I-CCK Brain.
Where [5] appears, read: CCK RECEPTOR BINDING RESULTS IC50 125I-CCK Pancreas, rat pancreas (CCK-A), 125I-CCK.
Setting [6] is: CCK RECEPTOR BINDING RESULTS IC50 125I-CCK Brain.

On to `CC1CCN(C2=NC(NC(=O)Nc3ccc4c(c3)CCC4)C(=O)N(C)c3ccccc32)CC1` (single isomer, unassigned; (-)) [Example 12, (-)-N-[2,3,Dihydro-1-methyl-5-(4-methylpiperidin-1-yl)-2-oxo-1H-1,4-benzodiazepin-3-yl]N'-[indan-5-yl]urea hydrochloride], for which the IC50 in experiment [1] (setting [3]) is 2180 nM; in experiment [2] (setting [4]) it was 0.28 nM.
In the same order, the values of `Cc1cccc(NC(=O)NC2N=C(N3CCCC(C)(C)C3)c3ccccc3N(C)C2=O)c1` (single isomer, unassigned; (-)) [Example 26, (-)-N-[2,3-dihydro-(3,3-dimethylpiperidin-1-yl)-1-methyl-2-oxo-1H-1,4-benzodiazepin-3-yl]N'-[3-methylphenyl]urea] are above 3000 nM and 0.27 nM.
`CN1C(=O)C(NC(=O)Nc2cccc(F)c2)N=C(N2CC3CCC(CC3)C2)c2ccccc21` (single isomer, unassigned; (-)) [Example 36, (-)-N-[5-(3-Azabicyclo[3,2,2]nonan-3-yl)-2,3-dihydro-1-methyl-2-oxo-1H-1,4-benzodiazepin-3-yl]-N'-[3-fluorophenyl]urea Hydrochloride]: the IC50 in experiment [1] (setting [5]) is 1400 nM; in experiment [2] (setting [6]) it was 0.32 nM.
In the case of `Cc1cccc(NC(=O)NC2N=C(N3CC4CCC(C4)C3)c3ccccc3N(C)C2=O)c1` (single isomer, unassigned; (-)) [Example 39, (-)-N-[5-(3-Azabicyclo[3,2,1]octan-3-yl)-2,3-dihydro-1-methyl-2-oxo-1H-1,4-benzodiazepin-3-yl]-N'-[3-methylphenyl]urea Hydrochloride], the IC50 in experiment [1] (read-out: CCK RECEPTOR BINDING RESULTS IC50 125I-CCK Pancreas) amounted to 4010 nM; in experiment [2] (setting [4]), 0.17 nM.
Take `CN1C(=O)C(NC(=O)Nc2ccc3c(c2)CCC3)N=C(N2CC3CCC(CC3)C2)c2ccccc21` (single isomer, unassigned; (-)) [Example 41, (-)-N-[5-(3-Azabicyclo[3,2,2]nonan-3-yl)-2,3-dihydro-1-methyl-2-oxo-1H-1,4-benzodiazepin-3-yl]-N'-[5-indanyl]urea]: the figures for the IC50 in experiment [1] (setting [3]) and in experiment [2] (setting [6]) were above 3000 nM and 0.37 nM, respectively.
With `Cc1ccc(NC(=O)NC2N=C(N3CC4CCC(CC4)C3)c3ccccc3N(C)C2=O)cc1F` (single isomer, unassigned; (-)) [Example 45, (-)-N-[5-(3-Azabicyclo[3,2,2]nonan-3-yl)-2,3-dihydro-1-methyl-2-oxo-1H-1,4-benzodiazepin-3-yl]-N'-[3-fluoro-4-methylphenyl]urea Hydrochloride], the results for the IC50 in experiment [1] (setting [5]) and in experiment [2] (setting [6]) were above 3000 nM and 0.42 nM, respectively.
Take `CN1C(=O)C(NC(=O)Nc2cccc(I)c2)N=C(N2CC3CCC(CC3)C2)c2ccccc21` (single isomer, unassigned; (-)) [Example 48, (-)-N-[5-(3-Azabicyclo[3,2,2]nonan-3-yl)-2,3-dihydro-1-methyl-2-oxo-1H-1,4-benzodiazepin-3-yl]-N'-[3-iodophenyl]urea]: the IC50 in experiment [1] (setting [3]) came to 2420 nM; in experiment [2] (setting [6]), 1.11 nM.
On to `Cc1cc(NC(=O)NC2N=C(N3CC4CCC(CC4)C3)c3ccccc3N(C)C2=O)ccc1F` (single isomer, unassigned; (-)) [Example 53, (-)-N-[5-(3-Azabicyclo[3,2,2]nonan-3-yl)-2,3-dihydro-1-methyl-2-oxo-1H-1,4-benzodiazepin-3-yl]-N'-[4-fluoro-3-methylphenyl]urea Hydrochloride], for which the half-inhibitory concentration (IC50) in experiment [1] (setting [5]) was found to be 3760 nM; in experiment [2] (setting [6]), 0.18 nM.
Consider `CN1C(=O)C(NC(=O)Nc2cccc(C(F)(F)F)c2)N=C(N2CC3CCC(CC3)C2)c2ccccc21` (single isomer, unassigned; (-)) [Example 55, (-)-N-[5-(3-Azabicyclo[3,2,2]nonan-3-yl)-2,3-dihydro-1-methyl]-2-oxo-1H-1,4-benzodiazepin-3-yl]-N'-[3-trifluoromethylphenyl]urea Hydrochloride], for which the IC50 in experiment [1] (setting [3]) is above 3000 nM; in experiment [2] (setting [6]) it was 0.73 nM.
